Reference: patent US20230181509A1, “THE USE OF DIFFUSION ENHANCING COMPOUNDS FOR TREATMENT OF VIRAL AND BACTERIAL INDUCED RESPIRATORY DISEASE” (DIFFUSION PHARMACEUTICALS LLC, priority 2020, published 2023)
Like-named read-outs stand apart in the source and are kept apart here.

Tests used:
[1] = cited from earlier work
[2] = Absorption into the blood stream after intramuscular injection of TSC with gamma cyclodextrin; type: in vivo; conditions: injected intramuscularly, rats
From the text: The solutions need not be equal-molar.

[3] = Solubility of TSC formulated with cyclodextrin and mannitol; type: physicochemical; conditions: formulated with a cyclodextrin and mannitol
From the text: A trans carotenoid such as TSC can be formulated with a cyclodextrin as noted above and a non-metabolized sugar such as mannitol (e.g. d-mannitol to adjust the osmotic pressure to be the same as that of blood). […] This solution can be added to isotonic saline or to other isotonic solutions in order to dilute it and still maintain the proper osmolality.

[4] = after hemorrhagic shock in rats; cited from earlier work
[5] = Solubility of TSC in water with gamma-cyclodextrin; type: physicochemical; conditions: TSC and gamma-cyclodextrin
[6] = cited from earlier work; remark: listed apart in the source

Compound	diffusivity of oxygen through plasma ([1]; plasma)	diffusivity of oxygen in water [1]	absorption into the blood stream [2]	TSC concentration of solutions that can be made [3]	whole-body oxygen consumption [4]	TSC concentration reached in aqueous solution [5]	oxygen levels, arterial and tissue ([6]; hypoxemic states)	oxygen levels, arterial and tissue ([6]; normoxic states)
CC(/C=C/C=C(\C)C(=O)[O-])=C\C=C\C=C(C)\C=C\C=C(/C)C(=O)[O-].[Na+].[Na+] [TSC, trans sodium crocetinate]	increases the diffusivity of oxygen through plasma	increase the diffusivity of oxygen in water	Absorption is quick	over 20 mg TSC/ml of solution	increase whole-body oxygen consumption	≤ 44 milligrams of TSC per ml of solution	increases oxygen levels	does not
CC(/C=C/C=C(\C)C(=O)O)=C\C=C\C=C(C)\C=C\C=C(/C)C(=O)O [crocetin, reference compound]		increase the diffusivity of oxygen in water						
